# Laboratory results taken from US20240254083A1, “HETEROCYCLIC TRPML1 AGONISTS AND USES THEREOF” (Libra Therapeutics, Inc., priority 2021, published 2024).
# How the values were obtained:
# hTRPML1 = biological target: T1, hTRPML1 (Homo sapiens, UniProt Q9GZU1); test: Cellular TRPML1 assay (FLIPR, GCaMP6f calcium read-out); type: cell-based; conditions: HEK T-REx/GCaMP6f/TRPML1 cells, FLIPR TETRA, kinetic response over 300 seconds; read-out: hTRPML1 FLIPR pEC50 (converted)
# T1 construct: expressed in transfected cells
# Method: Buffers and reagents • PBS (D-PBS without calcium and magnesium; EuroClone) • Trypsin (Trypsin 0.05%, EDTA 0.02% in PBS; EuroClone) • DMSO (Sigma) • Ca^2+ free Tyrode's buffer: in-house solution (130 mM NaCl, 5 mM KCl, 1 mM MgCl2, 5 mM NaHCO3, 20 mM HEPES in water at pH 7.4; sterile filtered). • Opti-MEM (Gibco) • Agonist: ML-SA1 (Sigma); stock: 60 mM in DMSO, stored at −20° C. • Blocker: ML-SI3 (in house synthesis); stock: 20 mM in DMSO, stored at −20° C.
# Cell line • The final clone for the TRPML1 assay is HEK T-REx/GCaMP6f/TRPML1. • GCaMP6f is a genetically encoded calcium indicator that is stably expressed in this cell line and used as a fluorescent read-out.
# Cells are seeded at 15000 cells/well either in 25 µl/well of growth medium or in 20 μl/well of Optimem+0.5% FBS without selection antibiotics. Twenty-four hours later, cells are assayed for the response to various compounds using the Ca^2+ sensitive GCaMP6f protein stably expressed in the cells as readout.
# The experiment is performed in a 384-well format according to the following procedures for either Ca^2+ free or Optimem conditions: • Ca^2+ free condition (in absence of extracellular Ca^2+): • 24 h after seeding, pre-incubate the cells at room temperature for about 10′. • Then remove the culture medium and replace it with 20 μL of Ca^2+ free Tyrode's buffer. • Start the experiment at the FLIPR^TETRA by injecting 10 μL/w of 3× concentrated test compounds and controls in Ca^2+ free Tyrode's buffer. Monitor the kinetic response over a period of 300 seconds. • Final DMSO concentration: 0.5% • Optimem condition (in presence of extracellular Ca^2+): • 24 h after seeding, pre-incubate the cells at room temperature for about 10′. • Start the experiment at the FLIPR^TETRA by injecting 10 μL/w of 3× concentrated test compounds and controls in Ca^2+ free Tyrode's buffer. Monitor the kinetic response over a period of 300 seconds. • Final DMSO concentration: 0.5%
# Data from FLIPR^TETRA measurements are analyzed with the Genedata Screener© software.
# [1] = test system: autophagy reporter Rosella stably expressed in HeK293 cell line; test: Autophagy assay (Rosella-LC3 reporter, imaging); type: cell-based; conditions: Homo sapiens; HeK293 cells with Rosella reporter (LC3 tag), 18 hours incubation, reference Torin-1; read-out: Autophagy pEC50 (converted)
# Method: • Tyrode's buffer with 2 mM Ca^2+ in-house solution (130 mM NaCl, 5 mM KCl, 2 mM CaCl2), 1 mM MgCl2, 5 mM NaHCO3, 20 mM HEPES in water at pH 7.4; sterile filtered) • DMSO (Sigma) • Bis-benzimide H 33342 trihydrochloride (Hoechst 33342; Sigma-Aldrich) • Reference molecule (agonist): Torin-1, (#4247, Tocris) stock 1.2 mM in DMSO, stored at −20° C. Reporter of Autophagy and Cell line
# Reporter Rosella: a fluorescent-based chimera constitutes by two fluorescent proteins, Green and Red variants, acting as a bimodal indicator of pH. The green fluorescent variant of the constructs is pH sensitive (pKa=6.9) while the red variant is not pH sensitive and it is used as reference. The reporter is fused to sequence for autophagosome localization (LC3 tag).
# The reporter Rosella have been stably expressed in HeK293 cell line and used as read-out.
# Experiments have been performed in 384 MTP poly-lysine coated well format. Cells have been seeded in 384-w at a density of 6000 cells/well in 25 μl/well complete growth medium without antibiotics. Twenty-four hours later, cells have been treated with compounds and incubated for further 18 hours. Then the cells have been imaged and assayed for the response to various compounds using the reporter for autophagy expressed in the cells as readout.
# The experiments were performed in a 384-well format according to the following procedure: • 24 h after seeding, cells were incubated with compounds at the desired concentration, and with the reference molecule (agonist) Torin-1 at a top concentration of 1 μM (max signal), for 18 hours at 37° C. and 5% CO2. The final percentage of DMSO was 0.3% in all the conditions. • Then the culture medium was carefully removed to avoid cells detachment and to discard red phenol into the medium and that can interfere with the measurements. • Staining of the nuclei was obtained by incubating the cells with 8 μM/well of Hoechst 3342 in standard Tyrode's buffer for 20 min at RT • Then the cells were carefully washed two times with standard Tyrode's buffer • Finally, the samples were acquired by recording three fluorescence emission channels (green, red and blue) at 20× magnification and with at least 3-4 fields of view per well in an Operetta CLS microscope (PerkinElmer). • Image analysis was performed by using Harmony software (PerkinElmer). The image analysis involved the following steps: flat-field illumination correction, nuclei segmentation, cell segmentations and identification of vesicles/granules within the cytosol compartments and representing the autophagy vesicles. Measurements of signal intensity ratio (Green to Red) and number of autophagy vesicles per cells were used to obtain information on the effects of compounds on the autophagy flux. • Data from image analysis measurements were finally loaded and analyzed for normalization and fitting procedures in Genedata Screener© software.
# T1 sequence (Q9GZU1 whole entry): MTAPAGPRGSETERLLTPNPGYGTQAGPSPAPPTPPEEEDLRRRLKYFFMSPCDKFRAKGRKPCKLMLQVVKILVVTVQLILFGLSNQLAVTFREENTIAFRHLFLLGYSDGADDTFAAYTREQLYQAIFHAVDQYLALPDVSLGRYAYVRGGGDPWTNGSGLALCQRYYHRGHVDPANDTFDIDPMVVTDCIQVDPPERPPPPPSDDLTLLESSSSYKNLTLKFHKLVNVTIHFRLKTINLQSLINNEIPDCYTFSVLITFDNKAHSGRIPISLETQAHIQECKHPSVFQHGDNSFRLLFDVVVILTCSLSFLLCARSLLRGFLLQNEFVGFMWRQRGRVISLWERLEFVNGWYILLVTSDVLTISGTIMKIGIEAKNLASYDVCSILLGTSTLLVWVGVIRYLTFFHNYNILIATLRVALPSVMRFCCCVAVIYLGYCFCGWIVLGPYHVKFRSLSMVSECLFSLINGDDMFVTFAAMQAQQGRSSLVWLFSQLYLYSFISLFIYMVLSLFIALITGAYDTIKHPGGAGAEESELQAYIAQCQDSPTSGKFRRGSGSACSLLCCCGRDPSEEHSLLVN
EC50 (hTRPML1),Compound,EC50 [1]
> 3160 nM,"C#CCC1CN(c2ccccc2NS(=O)(=O)c2ccc(S(=O)(=O)N(C)C)cc2)CCO1 (stereo not drawn) [Example 33, N^1,N^1-dimethyl-N^4-(2-(2-(prop-2-yn-1-yl)morpholino)phenyl)benzene-1,4-disulfonamide]",< 1000 nM
1000 to 3160 nM,"CN(C)S(=O)(=O)c1ccc(S(=O)(=O)Nc2ccccc2N2CCC(C)(c3ccccc3)CC2)cc1 [Example 38, N^1,N^1-dimethyl-N^4-(2-(4-methyl-4-phenylpiperidin-1-yl)phenyl)benzene-1,4-disulfonamide]",< 1000 nM
> 3160 nM,"CN(C)S(=O)(=O)c1ccc(S(=O)(=O)Nc2ccccc2N2CCC(C)(Oc3ccccn3)CC2)cc1 [Example 40, N^1,N^1-dimethyl-N^4-(2-(4-methyl-4-(pyridin-2-yloxy)piperidin-1-yl)phenyl)benzene-1,4-disulfonamide]",< 1000 nM
